Where two headings read alike, the source gives them in different places.
Assay: Tissue half-life (t1/2) and Cmax in plasma, brain, kidney and liver after oral administration to CD-1 mice
Type: in vivo, mouse
Details: male, mouse
Method: In vivo studies were conducted to observe the effect of the compounds of the invention in the subject animal. Male CD-1 mice, body weight of 20 grams at arrival, were used in these studies. Mice were given 30 mg/kg of compound in HPMC/Tween solution or suspension via oral gavage. Plasma, brain, and liver samples were collected at time periods of 1, 2, 4, 8, and 24 hours post dosing. One mouse was used per time point. Thus, a total of 5 mice were used for each compound tested. For sample collection, mice were euthanized with CO2. Blood samples were taken by cardiac puncture and kept on ice. Brain and liver samples were collected immediately after bleeding and the samples were kept on dry ice. For calculation of tissue half-lives (t1/2s), the terminal rate constant k was estimated by the absolute value of the slope of a log-linear regression of the terminal phase of the tissue concentration-time profile. The tissue half-life t1/2 is ln(2)/k.
The following table includes t1/2 data for plasma, brain, kidney, and liver obtained after oral administration.
Tissue Half-Life Data for Various Quinazolinone Compounds (PO)

[1] = brain t1/2, 30 mg/kg oral gavage (PO), read-out: Half-Lives (h) Brain (converted)
[2] = liver t1/2, 30 mg/kg oral gavage (PO), read-out: Half-Lives (h) Liver (converted)
[3] = plasma t1/2, 30 mg/kg oral gavage (PO), read-out: Half-Lives (h) Plasma (converted)
[4] = kidney t1/2, 30 mg/kg oral gavage (PO), read-out: Half-Lives (h) Kidney (converted)

SMILES	half-life [1] [h]	half-life [2] [h]	half-life [3] [h]	half-life [4] [h]
C[C@@H]1[C@@H](N=C(Nc2ccc3c(=O)n(CCc4ccc(Br)cc4F)c(-c4cnccn4)nc3c2)N2CCN[C@@H](C(F)F)C2)C[C@H]2C[C@@H]1C2(C)C [Example 233, (3R)-N-{3-[2-(4-bromo-2-fluorophenyl)ethyl]-4-oxo-2-pyrazin-2-yl-3,4-dihydroquinazolin-7-yl}-3-(difluoromethyl)-N′-[(1S,2S,3S,5R)-2,6,6-trimethylbicyclo[3.1.1]hept-3-yl]piperazine-1-carboximidamide]	15	44	6.4	–
C[C@@H]1[C@@H](N=C(Nc2ccc3c(=O)n(CCc4ccc(Cl)cc4)c(-c4cnccn4)nc3c2)N2CCN[C@@H](C(F)F)C2)C[C@H]2C[C@@H]1C2(C)C [Example 235, (3R)-N-{3-[2-(4-chlorophenyl)ethyl]-4-oxo-2-pyrazin-2-yl-3,4-dihydroquinazolin-7-yl}-3-(difluoromethyl)-N′-[(1 S,2S,3S,5R)-2,6,6-trimethylbicyclo[3.1.1]hept-3-yl]piperazine-1-carboximidamide]	6.1	5.6	4.7	–
C[C@@H]1[C@@H](N=C(Nc2ccc3c(=O)n(CCc4ccc(Br)cc4)c(-c4cccnc4)nc3c2)N2CC(=O)N[C@@H](C)C2)C[C@H]2C[C@@H]1C2(C)C [Example 230, (3S)-N-{3-[2-(4-bromophenyl)ethyl]-4-oxo-2-pyridin-3-yl-3,4-dihydroquinazolin-7-yl}-3-methyl-5-oxo-N′-[(1S,2S,3S,5R)-2,6,6-trimethylbicyclo[3.1.1]hept-3-yl]piperazine-1-carboximidamide]	–	5.9	3.1	–
COc1ccc(CCn2c(-c3cccnc3)nc3cc(N/C(=N/[C@H]4C[C@@H]5C[C@H]([C@@H]4C)C5(C)C)N4C[C@@H](C)N(C#N)[C@@H](C)C4)ccc3c2=O)c(F)c1 [Example 295]	4.9	9.5	3.3	–
COc1ccc(CCn2c(-c3cccnc3)nc3cc(N/C(=N/C4C[C@H]5C[C@@H]([C@@H]4C)C5(C)C)N4CCN(C#N)[C@@H](C)C4)ccc3c2=O)c(F)c1 (stereo partly shown) [Example 246]	5.8	18	5.7	3.1
C[C@@H]1[C@@H](N=C(Nc2ccc3c(=O)n(CCc4ccc(Cl)cc4Cl)c(-c4cnccn4)nc3c2)N2CCN[C@@H](C(F)F)C2)C[C@H]2C[C@@H]1C2(C)C [Example 228, (3R)-N-{3-[2-(2,4-dichlorophenyl)ethyl]-4-oxo-2-pyrazin-2-yl-3,4-dihydroquinazolin-7-yl}-3-(difluoromethyl)-N′-[(1S,2S,3S,5R)-2,6,6-trimethylbicyclo[3.1.1]hept-3-yl]piperazine-1-carboximidamide]	–	9.1	–	–
COc1ccc(CCn2c(NC3CC3)nc3cc(NC(=N[C@H]4C[C@H]5C[C@@H]([C@@H]4C)C5(C)C)N4CCN[C@@H](CF)C4)ccc3c2=O)c(F)c1 [Example 258, (3R)-N-{2-(cyclopropylamino)-3-(2-(2-fluoro-4-methoxyphenyl)ethyl]-4-oxo-3,4-dihydroquinazolin-7-yl}-3-(fluoromethyl)-N′-[(1S,2S,3S,5R)-2,6,6-trimethylbicyclo[3.1.1]hept-3-yl]piperazine-1-carboximidamide]	–	2.9	5.3	–
C[C@@H]1[C@@H](N=C(Nc2ccc3c(=O)n(CCc4ccc(Br)cc4)c(-c4cnccn4)nc3c2)N2CCN[C@@H](C(F)F)C2)C[C@H]2C[C@@H]1C2(C)C [Example 231, (3R)-N-{3-[2-(4bromophenyl)ethyl]-4-oxo-2-pyrazin-2-yl-3,4-dihydroquinazolin-7-yl]-3-(difluoromethyl)-N′-[(1S,2S,3S,5R)-2,6,6-trimethylbicyclo[3.1.1]hept-3-yl]piperazine-1-carboximidamide]	15	4.6	2.6	–
COc1ccc(CCn2cnc3cc(N/C(=N/[C@H]4C[C@@H]5C[C@H]([C@@H]4C)C5(C)C)N(C)CCO)ccc3c2=O)c(F)c1 [Example 288]	–	1.2	1.1	–
COc1ccc(CCn2c(-c3cccnc3)nc3cc(NC(=N[C@H]4C[C@H]5C[C@@H]([C@@H]4C)C5(C)C)N4CC(=O)N[C@@H](C)C4)ccc3c2=O)c(F)c1 [Example 216, (3S)-N-{3-[2-(2-fluoro-4-methoxyphenyl)ethyl]-4-oxo-2-pyridin-3-yl-3,4-dihydroquinazolin-7-yl}-3-methyl-5-oxo-N′-[(1S,2S,3S,5R)-2,6,6-trimethylbicyclo[3.1.1]hept-3-yl]piperazine-1-carboximidamide]	14	2.1	1.9	2.7
C[C@@H]1[C@@H](N=C(Nc2ccc3c(=O)n(CCc4ccc(F)cc4)c(CF)nc3c2)N2CCN[C@@H](CF)C2)C[C@H]2C[C@@H]1C2(C)C [Example 257, (3R)-3-(fluoromethyl)-N-{2-(fluoromethyl)-3-[2-(4-fluorophenyl)ethyl]-4-oxo-3,4-dihydroquinazolin-7-yl}-N′-[(1 S,2S,3S,5R)-2,6,6-trimethylbicyclo[3.1.1]hept-3-yl]piperazine-1-carboximidamide]	12	3	20	–
COc1ccc(CCn2c(N3CCOCC3)nc3cc(NC(=N[C@H]4C[C@H]5C[C@@H]([C@@H]4C)C5(C)C)N4CCN[C@@H](CF)C4)ccc3c2=O)c(F)c1 [Example 253]	27	6.9	7.3	14
COc1ccc(CCn2cnc3cc(N/C(=N/C4C[C@@H]5C[C@H]([C@@H]4C)C5(C)C)N4CC(C)CC(C)C4)ccc3c2=O)c(F)c1 (stereo partly drawn) [Example 274, N-(3-{2-[2-fluoro-4-(methyloxy)phenyl]ethyl}-4-oxo-3,4-dihydro-7-quinazolinyl)-3,5-dimethyl-N-[(1R,2S,5S)-2,6,6-trimethylbicyclo[3.1.1]hept-3-yl]-1-piperidinecarboximidamide]	–	2.3	2.1	2.7
C[C@@H]1C(/N=C(/Nc2ccc3c(=O)n(CCc4ccc(Cl)cc4Cl)c(-c4cnccn4)nc3c2)N2CC(=O)N[C@@H](C)C2)C[C@H]2C[C@@H]1C2(C)C (stereo partly drawn) [Example 229, (3S)-N-{3-[2-(2,4-dichlorophenyl)ethyl]-4-oxo-2-pyrazin-2-yl-3,4-dihydroquinazolin-7-yl}-3-methyl-5-oxo-N′-[(1S,2S3S,5R)-2,6,6-trimethylbicyclo[3.1.1]hept-3-yl]piperazine-1-carboximidamide]	13	16	9	–
COc1ccc(CCn2c(-c3ncc[nH]3)nc3cc(NC(=N[C@H]4C[C@H]5C[C@@H]([C@@H]4C)C5(C)C)N4CCN[C@@H](CF)C4)ccc3c2=O)c(F)c1 [Example 255, (3R)-N-[3-[2-(2-fluoro-4-methoxyphenyl)ethyl]-2-(1H-imidazoi-2-yl)-4-oxo-3,4-dihydroquinazolin-7-yl]-3-(fluoromethyl)-N′-[(1S,2S,3S,5R)-2,6,6-trimethylbicyclo[3.1.1]hept-3-yl]piperazine-1-carboximidamide]	25	7.3	5.6	–
